Laboratory results published in patent US5656722A, “A^21 -, B^30 - modified insulin derivatives having an altered action profile” (Hoechst Aktiengesellschaft, priority 1988, dated 1997).

Legend:
dogs = assay: Action profile (blood glucose) of insulin compositions in dogs; assay type: in vivo
Experimental: D) Action Profile of an Asp^A21 -Human Insulin-Arg^B31 -Arg^B32-OH Composition in dogs by comparison with human insulin-Arg^B31 -Arg^B32 -OH and basal H insulin Hoechst^(R) =an NPH (neutral protamine Hagedorn) composition containing about 10 μg of Zn^2+.

[1] = pH 4
Experimental: 18 mg of glycerol, 10 mg of benzyl alcohol, 80 μg of Zn^2+, pH 4.0.

[2] = measured by isoelectric focusing; cited from earlier work

Substance	Blood glucose as a % of the initial level (dogs; 1 h) [%]	Blood glucose as a % of the initial level (dogs; 2 h) [%]	Blood glucose as a % of the initial level (dogs; 3 h) [%]	Blood glucose as a % of the initial level (dogs; 5 h) [%]	Blood glucose as a % of the initial level (dogs; 7 h) [%]	Action profile (basal profile) (dogs; compared with human insulin-Arg^B31 -Arg^B32 -OH)	Stability [1]	Isoelectric point [2] [pH]
Asp^A21 -Human Insulin-Arg^B31 -Arg^B32 -OH	99	62	51	75	98	same advantageous basal profile as human insulin-Arg^B31 -Arg^B32 -OH	stable for a long time under the chosen conditions	
human insulin-Arg^B31 -Arg^B32 -OH [Human insulin Arg^B31 --Arg^B32 --OH, reference compound]	77	52	64	85	98			
proinsulin: proinsulin								5.4
